Read-outs that look alike come from different tables or passages of the source.
Assays:
[1] = tested on: PKB Ser473 phosphorylation in Rat1-myr-HA-p110 beta cells; assay: Reverse protein array, PKB Ser473 phosphorylation in Rat1-myr-HA-p110 beta cells; assay type: cell-based; conditions: Rattus norvegicus, 0.5 h, 30 minutes compound incubation, read-out: p-PKB/IC50_beta
[2] = Parallel Artificial Membrane Permeability Assay (PAMPA) at pH 6.8; assay type: physicochemical
In short: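 Reported as log Pe, membrane permeability was determined by parallel artificial membrane assay at pH 6.8 per Wohnsland–Faller.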

mTOR = target: T1, mTOR (Homo sapiens, UniProt P42345); assay: Biochemical assay for m-TOR by TR-FRET
T1 construct: purchased Invitrogen Corporation (Carlsbad/Calif., USA) PV4753
In short: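 mTOR (0.5 nM) phosphorylates GFP-4EBP1 (400 nM) with 8 μM ATP at rt in 50 mM HEPES pH 7.5, 10 mM MnCl2, 50 mM NaCl, 1 mM EGTA, 1 mM DTT; compounds 0.003–10 μM final. EDTA stop with Tb-anti-p4EBP1[pT46] antibody (0.5 nM); TR-FRET read after 15 min against no-enzyme and vehicle controls.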

T1 sequence (P42345 1360-2549 limits assumed): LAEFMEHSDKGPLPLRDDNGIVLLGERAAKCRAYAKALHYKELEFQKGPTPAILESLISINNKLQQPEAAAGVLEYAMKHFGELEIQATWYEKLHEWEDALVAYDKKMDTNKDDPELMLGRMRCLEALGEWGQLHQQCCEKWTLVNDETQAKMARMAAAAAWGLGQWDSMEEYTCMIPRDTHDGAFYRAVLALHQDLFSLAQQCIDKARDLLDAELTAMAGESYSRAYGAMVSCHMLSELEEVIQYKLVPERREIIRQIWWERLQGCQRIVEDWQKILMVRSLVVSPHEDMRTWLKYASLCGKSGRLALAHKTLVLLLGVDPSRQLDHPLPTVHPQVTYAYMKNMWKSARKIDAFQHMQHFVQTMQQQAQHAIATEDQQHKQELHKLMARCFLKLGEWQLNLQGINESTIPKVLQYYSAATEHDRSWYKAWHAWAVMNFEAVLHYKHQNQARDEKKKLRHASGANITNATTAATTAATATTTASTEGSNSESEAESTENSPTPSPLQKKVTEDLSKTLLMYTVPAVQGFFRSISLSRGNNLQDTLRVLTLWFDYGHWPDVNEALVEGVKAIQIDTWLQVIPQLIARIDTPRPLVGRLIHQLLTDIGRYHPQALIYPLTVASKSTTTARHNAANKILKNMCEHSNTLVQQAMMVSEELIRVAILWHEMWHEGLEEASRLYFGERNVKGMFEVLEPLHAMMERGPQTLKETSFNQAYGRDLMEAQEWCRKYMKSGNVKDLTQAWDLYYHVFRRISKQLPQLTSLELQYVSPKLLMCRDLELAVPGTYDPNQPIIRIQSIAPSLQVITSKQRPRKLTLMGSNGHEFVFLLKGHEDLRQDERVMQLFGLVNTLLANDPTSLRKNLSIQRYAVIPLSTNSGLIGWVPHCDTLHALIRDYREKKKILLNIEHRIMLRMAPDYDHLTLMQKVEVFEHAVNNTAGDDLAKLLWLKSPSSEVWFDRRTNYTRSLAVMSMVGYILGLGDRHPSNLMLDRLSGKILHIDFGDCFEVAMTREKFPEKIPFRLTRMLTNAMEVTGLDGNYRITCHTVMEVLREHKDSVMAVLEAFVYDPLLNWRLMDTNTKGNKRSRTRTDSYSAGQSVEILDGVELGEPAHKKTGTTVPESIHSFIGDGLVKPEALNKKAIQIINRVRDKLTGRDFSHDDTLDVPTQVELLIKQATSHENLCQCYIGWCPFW

| SMILES | IC50 [1] [nM] | HT-Perm logPe pH6.8 [2] | IC50 (mTOR; read-out: EPK_mTOR/IC50) [nM] | HT-perm/logPe pH6.8 [2] | IC50 (mTOR; read-out: mTOR/IC50) [nM] |
| --- | --- | --- | --- | --- | --- |
| COCCOc1cc(-c2ccc3ncc4c(c3c2)n(-c2ccc(OC)nc2OC)c(=O)n4C)cnc1C [Example 8.9, 1-(2,6-Dimethoxy-pyridin-3-yl)-8-[5-(2-methoxy-ethoxy)-6-methyl-pyridin-3-yl]-3-methyl-1,3-dihydro-imidazo[4,5-c]quinolin-2-one] | 39.5 | −3.9 | 10 |  |  |
| CNc1ncc(-c2ccc3ncc4c(c3c2)n(-c2ccc(F)nc2C)c(=O)n4C)cc1F [Example 7.12, 8-(5-Fluoro-6-methylamino-pyridin-3-yl)-1-(6-fluoro-2-methyl-pyridin-3-yl)-3-methyl-1,3-dihydro-imidazo[4,5-c]quinolin-2-one] | 13.5 | −3.7 | 66 |  |  |
| CCNc1cc(-c2ccc3ncc4c(c3c2)n(-c2ccc(F)nc2C)c(=O)n4C)cnc1CO [Example 7.9, 8-(5-Ethylamino-6-hydroxymethyl-pyridin-3-yl)-1-(6-fluoro-2-methyl-pyridin-3-yl)-3-methyl-1,3-dihydro-imidazo[4,5-c]quinolin-2-one] | 10 | −5.2 | < 3 |  |  |
| COc1ccc(-c2ccc3ncc4c(c3c2)n(-c2cccnc2OC)c(=O)n4C)cn1 [Example 1.1, 1-(2-Methoxy-pyridin-3-yl)-8-(6-methoxy-pyridin-3-yl)-3-methyl-1,3-dihydro-imidazo[4,5-c]quinolin-2-one] | 65 |  |  | −3.6 | 36 |
| COc1ncccc1-n1c(=O)n(C)c2cnc3ccc(-c4cnc(N)c(C(F)(F)F)c4)cc3c21 [Example 1.3, 8-(6-Amino-5-trifluoromethyl-pyridin-3-yl)-1-(2-methoxy-pyridin-3-yl)-3-methyl-1,3-dihydro-imidazo[4,5-c]quinolin-2-one] | 13.9 |  |  | −3.8 | 9 |
| CCOc1cc(-c2ccc3ncc4c(c3c2)n(-c2cccnc2C)c(=O)n4C)cnc1C [Example 2.22, 8-(5-Ethoxy-6-methyl-pyridin-3-yl)-3-methyl-1-(2-methyl-pyridin-3-yl)-1,3-dihydro-imidazo[4,5-c]quinolin-2-one] | 22.5 | −3.7 | 80 |  |  |
| Cc1ncccc1-n1c(=O)n(C)c2cnc3ccc(-c4cnc5c(ccn5C)c4)cc3c21 [Example 2.14, 3-Methyl-1-(2-methyl-pyridin-3-yl)-8-(1-methyl-1H-pyrrolo[2,3-b]pyridin-5-yl)-1,3-dihydro-imidazo[4,5-c]quinolin-2-one] | 13.1 |  |  | −3.9 | 24 |
| CCOc1ccc(-c2ccc3ncc4c(c3c2)n(-c2cccnc2C)c(=O)n4C)cn1 [Example 2.1, 8-(6-Ethoxy-pyridin-3-yl)-3-methyl-1-(2-methyl-pyridin-3-yl)-1,3-dihydro-imidazo[4,5-c]quinolin-2-one] | 18.3 |  |  | −3.7 | 42 |

Other lines, results leading:

| IC50 [1] [nM] | HT-Perm logPe pH6.8 [2] | IC50 (mTOR; read-out: EPK_mTOR/IC50) [nM] | HT-perm/logPe pH6.8 [2] | IC50 (mTOR; read-out: mTOR/IC50) [nM] | SMILES |
| --- | --- | --- | --- | --- | --- |
| 85.7 | −4.9 | 25 |  |  | Cc1nc(N2CCC(O)C2)ccc1-n1c(=O)n(C)c2cnc3ccc(-c4cncc(OC(C)C)c4)cc3c21 (stereo not drawn) [Example 27.1, 1-[6-(3-Hydroxy-pyrrolidin-1-yl)-2-methyl-pyridin-3-yl]-8-(5-isopropoxy-pyridin-3-yl)-3-methyl-1,3-dihydro-imidazo[4,5-c]quinolin-2-one] |
| 65.6 | −3.7 | 110 |  |  | Cc1cc(F)ncc1-n1c(=O)n(C)c2cnc3ccc(-c4cnc(N)c(C(F)(F)F)c4)cc3c21 [Example 16.1, 8-(6-Amino-5-trifluoromethyl-pyridin-3-yl)-1-(6-fluoro-4-methyl-pyridin-3-yl)-3-methyl-1,3-dihydro-imidazo[4,5-c]quinolin-2-one] |
| < 4.47 | −4.8 | 3 |  |  | CNc1cc(-c2ccc3ncc4c(c3c2)n(-c2ccc(C(F)(F)F)nc2C)c(=O)n4C)cnc1CO [Example 33.2, 8-(6-Hydroxymethyl-5-methylamino-pyridin-3-yl)-3-methyl-1-(2-methyl-6-trifluoromethyl-pyridin-3-yl)-1,3-dihydro-imidazo[4,5-c]quinolin-2-one] |
| 132 | −3.7 | 71 |  |  | COCCN(C)c1ccc(-n2c(=O)n(C)c3cnc4ccc(-c5cnc(N(C)C)nc5)cc4c32)c(C)n1 [Example 15.5, 8-(2-Dimethylamino-pyrimidin-5-yl)-1-{6-[(2-methoxy-ethyl)-methyl-amino]-2-methyl-pyridin-3-yl}-3-methyl-1,3-dihydro-imidazo[4,5-c]quinolin-2-one] |
| 61.4 | −4.1 | 28 |  |  | Cc1ccc(-n2c(=O)n(C)c3cnc4ccc(-c5cncc(NC(C)C)c5)cc4c32)c(C)n1 [Example 14.8, 1-(2,6-Dimethyl-pyridin-3-yl)-8-(5-isopropylamino-pyridin-3-yl)-3-methyl-1,3-dihydro-imidazo[4,5-c]quinolin-2-one] |
| 302 | −4.4 | 151 |  |  | CNc1ncc(-c2ccc3ncc4c(c3c2)n(-c2cnc(F)cc2C)c(=O)n4C)cn1 [Example 16.3, 1-(6-Fluoro-4-methyl-pyridin-3-yl)-3-methyl-8-(2-methylamino-pyrimidin-5-yl)-1,3-dihydro-imidazo[4,5-c]quinolin-2-one] |
| 141 | −4.2 | 704 |  |  | CNc1ccc(-c2ccc3ncc4c(c3c2)n(-c2cnc(F)cc2C)c(=O)n4C)cn1 [Example 16.4, 1-(6-Fluoro-4-methyl-pyridin-3-yl)-3-methyl-8-(6-methylamino-pyridin-3-yl)-1,3-dihydro-imidazo[4,5-c]quinolin-2-one] |
| < 4.57 | −4.1 | 6 |  |  | CCNc1cc(-c2ccc3ncc4c(c3c2)n(-c2ccc(OCCOC)nc2C)c(=O)n4C)cnc1C [Example 13.4, 8-(5-Ethylamino-6-methyl-pyridin-3-yl)-1-[6-(2-methoxy-ethoxy)-2-methyl-pyridin-3-yl]-3-methyl-1,3-dihydro-imidazo[4,5-c]quinolin-2-one] |
| 15.7 | −4 | 49 |  |  | CCOc1ccc(-c2ccc3ncc4c(c3c2)n(-c2ccc(OCCOC)nc2C)c(=O)n4C)cn1 [Example 13.1, 8-(6-Ethoxy-pyridin-3-yl)-1-[6-(2-methoxy-ethoxy)-2-methyl-pyridin-3-yl]-3-methyl-1,3-dihydro-imidazo[4,5-c]quinolin-2-one] |
| 10.8 | −3.8 | 17 |  |  | Cc1ccc(-n2c(=O)n(C)c3cnc4ccc(-c5cnc(N)c(C(F)(F)F)c5)cc4c32)c(C)n1 [Example 14.5, 8-(6-Amino-5-trifluoromethyl-pyridin-3-yl)-1-(2,6-dimethyl-pyridin-3-yl)-3-methyl-1,3-dihydro-imidazo[4,5-c]quinolin-2-one] |
| 19.6 | −6.1 | 9 |  |  | COc1nc(N2CCNCC2)ccc1-n1c(=O)n(C)c2cnc3ccc(-c4cnc(N(C)C)nc4)cc3c21 [Example 9.4, 8-(2-Dimethylamino-pyrimidin-5-yl)-1-(2-methoxy-6-piperazin-1-yl-pyridin-3-yl)-3-methyl-1,3-dihydro-imidazo[4,5-c]quinolin-2-one] |
| < 4.57 | −4.1 | 9 |  |  | CNc1cc(-c2ccc3ncc4c(c3c2)n(-c2ccc(N(C)C)nc2C)c(=O)n4C)cnc1C [Example 19.2, 1-(6-Dimethylamino-2-methyl-pyridin-3-yl)-3-methyl-8-(6-methyl-5-methylamino-pyridin-3-yl)-1,3-dihydro-imidazo[4,5-c]quinolin-2-one] |
| 5.3 | −3.7 | 18 |  |  | COCCOc1ccc(-n2c(=O)n(C)c3cnc4ccc(-c5cnc(N)c(C(F)(F)F)c5)cc4c32)c(C)n1 [Example 13.2, 8-(6-Amino-5-trifluoromethyl-pyridin-3-yl)-1-[6-(2-methoxy-ethoxy)-2-methyl-pyridin-3-yl]-3-methyl-1,3-dihydro-imidazo[4,5-c]quinolin-2-one] |
| 40.2 | −4.1 | 42 |  |  | COc1cc(-c2ccc3ncc4c(c3c2)n(-c2ccc(N(C)C)nc2C)c(=O)n4C)cnc1CO [Example 19.4, 1-(6-Dimethylamino-2-methyl-pyridin-3-yl)-8-(6-hydroxymethyl-5-methoxy-pyridin-3-yl)-3-methyl-1,3-dihydro-imidazo[4,5-c]quinolin-2-one] |
| < 4.57 | −4 | 14 |  |  | CNc1ccc(-c2ccc3ncc4c(c3c2)n(-c2ccc(OCCOC)nc2C)c(=O)n4C)cn1 [Example 13.3, 1-[6-(2-Methoxy-ethoxy)-2-methyl-pyridin-3-yl]-3-methyl-8-(6-methylamino-pyridin-3-yl)-1,3-dihydro-imidazo[4,5-c]quinolin-2-one] |
| 23.2 | −5.1 | 11 |  |  | COCCN(C)c1ccc(-n2c(=O)n(C)c3cnc4ccc(-c5cncc(N)c5)cc4c32)c(C)n1 [Example 15.8, 8-(5-Amino-pyridin-3-yl)-1-{6-[(2-methoxy-ethyl)-methyl-amino]-2-methyl-pyridin-3-yl}-3-methyl-1,3-dihydro-imidazo[4,5-c]quinolin-2-one] |

— US20100311714A1, “1H-IMIDAZO[4,5-c]QUINOLINONE COMPOUNDS” (priority 2009, published 2010)
